Experimental data: PMC8542630 (Cell chemical biology, 2021)

Key:
Experiment in all cases: Microscale thermophoresis
Type in all cases: binding, S. cerevisiae
[1] = target: GFP-Sc-Dyn AAA3 E/Q (E2488Q) (Saccharomyces cerevisiae, UniProt P36022, E2488Q)
[2] = target: GFP-Sc-Dyn (Saccharomyces cerevisiae, UniProt P36022); conditions: for FNorm, GFP-Sc-Dyn (MST) / ΔFNorm, GFP-Sc-Dyn (MST): mean ± SD; for FNorm, GFP-Sc-Dyn (MST): n=3; for ΔFNorm, GFP-Sc-Dyn (MST): absence of AMPPNP, n=5
[3] = target: T1, Sc-Dyn-lyso (Saccharomyces cerevisiae, UniProt P36022)
T1 sequence (P36022 1758-2992 limits assumed): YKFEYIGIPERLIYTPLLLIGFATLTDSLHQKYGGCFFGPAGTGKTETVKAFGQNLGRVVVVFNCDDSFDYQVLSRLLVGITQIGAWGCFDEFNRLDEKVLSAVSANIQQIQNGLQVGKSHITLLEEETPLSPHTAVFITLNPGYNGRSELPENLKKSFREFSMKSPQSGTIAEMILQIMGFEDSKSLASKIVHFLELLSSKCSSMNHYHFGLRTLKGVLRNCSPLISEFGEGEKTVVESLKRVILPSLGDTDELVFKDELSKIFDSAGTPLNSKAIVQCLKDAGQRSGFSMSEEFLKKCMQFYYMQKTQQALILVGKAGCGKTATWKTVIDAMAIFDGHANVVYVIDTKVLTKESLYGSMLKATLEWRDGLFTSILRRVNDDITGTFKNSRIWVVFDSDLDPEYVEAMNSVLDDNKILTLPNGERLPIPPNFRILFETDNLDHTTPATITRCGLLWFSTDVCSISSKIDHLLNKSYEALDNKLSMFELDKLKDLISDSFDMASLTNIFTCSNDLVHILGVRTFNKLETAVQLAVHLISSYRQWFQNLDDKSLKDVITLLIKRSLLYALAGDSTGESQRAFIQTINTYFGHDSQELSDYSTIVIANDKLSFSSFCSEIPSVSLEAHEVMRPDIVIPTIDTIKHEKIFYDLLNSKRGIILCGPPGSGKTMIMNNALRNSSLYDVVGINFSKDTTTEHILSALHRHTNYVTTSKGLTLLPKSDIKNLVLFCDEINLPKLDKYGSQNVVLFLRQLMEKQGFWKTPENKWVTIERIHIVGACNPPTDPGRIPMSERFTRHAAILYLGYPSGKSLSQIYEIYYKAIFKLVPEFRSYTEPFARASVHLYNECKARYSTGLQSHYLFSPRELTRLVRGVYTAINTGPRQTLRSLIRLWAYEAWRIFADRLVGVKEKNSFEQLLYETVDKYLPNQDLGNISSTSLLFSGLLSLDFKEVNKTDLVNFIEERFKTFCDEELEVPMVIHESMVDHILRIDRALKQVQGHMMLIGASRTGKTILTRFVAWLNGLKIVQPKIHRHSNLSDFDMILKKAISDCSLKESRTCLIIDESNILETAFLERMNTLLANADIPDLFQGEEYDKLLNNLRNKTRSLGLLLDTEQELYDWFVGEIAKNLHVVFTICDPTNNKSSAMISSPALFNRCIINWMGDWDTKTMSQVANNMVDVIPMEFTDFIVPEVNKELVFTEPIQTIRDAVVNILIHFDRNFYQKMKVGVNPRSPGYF
T1 sequence (P36022 3301-4092 limits assumed): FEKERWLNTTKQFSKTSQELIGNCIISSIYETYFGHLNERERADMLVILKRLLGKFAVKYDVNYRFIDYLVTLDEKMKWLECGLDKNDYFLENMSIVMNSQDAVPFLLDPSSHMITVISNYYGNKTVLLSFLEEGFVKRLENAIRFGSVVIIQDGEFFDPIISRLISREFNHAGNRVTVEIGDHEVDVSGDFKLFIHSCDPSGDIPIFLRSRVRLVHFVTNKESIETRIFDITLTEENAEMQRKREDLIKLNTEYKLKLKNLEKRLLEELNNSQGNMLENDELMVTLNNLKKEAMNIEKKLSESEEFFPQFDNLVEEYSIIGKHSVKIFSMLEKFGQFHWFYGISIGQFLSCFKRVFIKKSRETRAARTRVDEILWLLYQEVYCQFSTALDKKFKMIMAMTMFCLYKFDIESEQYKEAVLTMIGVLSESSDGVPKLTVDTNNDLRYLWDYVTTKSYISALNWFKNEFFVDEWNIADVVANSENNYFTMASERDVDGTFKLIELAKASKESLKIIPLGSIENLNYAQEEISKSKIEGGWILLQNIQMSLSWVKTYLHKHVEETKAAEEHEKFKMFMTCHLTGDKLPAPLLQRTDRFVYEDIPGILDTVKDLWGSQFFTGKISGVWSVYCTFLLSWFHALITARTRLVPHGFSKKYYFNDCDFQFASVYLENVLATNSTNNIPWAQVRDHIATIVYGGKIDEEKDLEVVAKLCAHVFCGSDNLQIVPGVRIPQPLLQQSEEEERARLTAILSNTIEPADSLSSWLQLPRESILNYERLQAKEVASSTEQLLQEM

Chain of GFP-Sc-Dyn (P36022 1219-4092): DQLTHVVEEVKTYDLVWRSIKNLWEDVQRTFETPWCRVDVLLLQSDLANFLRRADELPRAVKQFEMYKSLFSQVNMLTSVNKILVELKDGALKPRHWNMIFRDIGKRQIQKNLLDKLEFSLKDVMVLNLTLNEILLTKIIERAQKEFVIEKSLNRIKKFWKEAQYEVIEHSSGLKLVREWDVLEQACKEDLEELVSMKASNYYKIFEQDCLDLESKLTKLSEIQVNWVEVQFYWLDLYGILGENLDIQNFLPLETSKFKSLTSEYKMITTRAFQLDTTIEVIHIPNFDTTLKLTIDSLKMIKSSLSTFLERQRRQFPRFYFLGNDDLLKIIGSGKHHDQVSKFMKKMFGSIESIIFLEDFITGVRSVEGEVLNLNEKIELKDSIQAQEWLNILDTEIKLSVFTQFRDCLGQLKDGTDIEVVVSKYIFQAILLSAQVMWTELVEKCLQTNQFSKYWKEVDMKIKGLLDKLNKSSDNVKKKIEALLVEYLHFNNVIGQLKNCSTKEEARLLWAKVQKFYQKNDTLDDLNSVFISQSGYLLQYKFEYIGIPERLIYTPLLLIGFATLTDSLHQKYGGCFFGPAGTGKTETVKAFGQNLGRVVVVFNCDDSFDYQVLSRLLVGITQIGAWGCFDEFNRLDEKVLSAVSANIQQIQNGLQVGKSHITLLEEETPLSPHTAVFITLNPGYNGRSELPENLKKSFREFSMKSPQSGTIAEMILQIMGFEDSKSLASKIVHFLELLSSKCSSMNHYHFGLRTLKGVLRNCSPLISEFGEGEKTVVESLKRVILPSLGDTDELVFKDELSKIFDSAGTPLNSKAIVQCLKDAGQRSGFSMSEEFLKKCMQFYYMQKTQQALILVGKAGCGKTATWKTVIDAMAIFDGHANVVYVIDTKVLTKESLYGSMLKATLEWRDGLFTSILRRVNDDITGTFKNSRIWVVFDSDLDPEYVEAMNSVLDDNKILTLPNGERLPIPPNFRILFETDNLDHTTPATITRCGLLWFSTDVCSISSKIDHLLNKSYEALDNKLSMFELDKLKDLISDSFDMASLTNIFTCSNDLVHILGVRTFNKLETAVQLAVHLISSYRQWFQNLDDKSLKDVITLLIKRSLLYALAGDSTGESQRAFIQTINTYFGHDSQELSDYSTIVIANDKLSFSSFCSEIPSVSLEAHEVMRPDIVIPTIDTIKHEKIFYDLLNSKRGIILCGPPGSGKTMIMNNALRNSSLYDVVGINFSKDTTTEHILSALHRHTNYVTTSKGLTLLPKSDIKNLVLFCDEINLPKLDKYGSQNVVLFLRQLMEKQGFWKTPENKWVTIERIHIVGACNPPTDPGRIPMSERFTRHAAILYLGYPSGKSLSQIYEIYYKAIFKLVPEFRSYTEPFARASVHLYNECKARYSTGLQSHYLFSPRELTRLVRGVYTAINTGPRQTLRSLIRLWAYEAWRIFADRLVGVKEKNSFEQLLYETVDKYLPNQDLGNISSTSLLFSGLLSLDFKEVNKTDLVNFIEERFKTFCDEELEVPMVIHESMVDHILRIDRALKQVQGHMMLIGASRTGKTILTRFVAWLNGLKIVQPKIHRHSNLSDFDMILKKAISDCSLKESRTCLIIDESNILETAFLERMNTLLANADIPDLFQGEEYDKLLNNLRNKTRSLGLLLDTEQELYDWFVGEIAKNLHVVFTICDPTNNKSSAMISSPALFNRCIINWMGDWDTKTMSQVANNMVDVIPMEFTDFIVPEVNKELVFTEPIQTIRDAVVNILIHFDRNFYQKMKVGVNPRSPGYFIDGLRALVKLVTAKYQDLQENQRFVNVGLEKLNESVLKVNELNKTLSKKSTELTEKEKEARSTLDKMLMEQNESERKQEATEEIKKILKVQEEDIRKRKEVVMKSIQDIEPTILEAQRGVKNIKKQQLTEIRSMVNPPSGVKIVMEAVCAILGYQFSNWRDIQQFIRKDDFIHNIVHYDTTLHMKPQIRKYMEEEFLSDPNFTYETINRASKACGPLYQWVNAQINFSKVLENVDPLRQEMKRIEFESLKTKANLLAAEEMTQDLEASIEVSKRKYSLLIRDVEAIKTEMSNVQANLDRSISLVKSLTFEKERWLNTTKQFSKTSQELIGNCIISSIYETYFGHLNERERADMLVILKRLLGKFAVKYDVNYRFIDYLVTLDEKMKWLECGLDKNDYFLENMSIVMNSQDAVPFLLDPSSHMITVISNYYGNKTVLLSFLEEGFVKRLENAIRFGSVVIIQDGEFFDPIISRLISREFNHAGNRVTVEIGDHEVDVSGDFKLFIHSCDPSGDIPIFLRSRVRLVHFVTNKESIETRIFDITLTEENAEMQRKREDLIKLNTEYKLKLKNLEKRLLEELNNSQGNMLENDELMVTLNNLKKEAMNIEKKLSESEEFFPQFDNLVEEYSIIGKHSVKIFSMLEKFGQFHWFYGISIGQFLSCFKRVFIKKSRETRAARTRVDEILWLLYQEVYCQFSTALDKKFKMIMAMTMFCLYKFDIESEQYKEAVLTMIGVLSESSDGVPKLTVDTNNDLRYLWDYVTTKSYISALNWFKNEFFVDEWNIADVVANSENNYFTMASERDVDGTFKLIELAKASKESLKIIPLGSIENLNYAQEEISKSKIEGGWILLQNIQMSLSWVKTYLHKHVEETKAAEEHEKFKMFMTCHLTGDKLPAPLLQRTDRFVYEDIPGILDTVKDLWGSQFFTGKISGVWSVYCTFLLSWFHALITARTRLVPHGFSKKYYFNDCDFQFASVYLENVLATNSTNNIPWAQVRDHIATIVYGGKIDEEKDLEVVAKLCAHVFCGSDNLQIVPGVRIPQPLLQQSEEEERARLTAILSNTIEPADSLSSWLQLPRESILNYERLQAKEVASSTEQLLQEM
Chain of GFP-Sc-Dyn AAA3 E/Q (E2488Q) (P36022 1219-4092 E2488Q): as the sequence (P36022 1219-4092) above, with E1270Q counted along it

N#Cc1c(C2(c3ccc(Cl)cc3)CC2)nn2c(=O)c(Oc3cccc(Br)c3)c[nH]c12 [compound 20, 6-(3-bromophenoxy)-2-[1-(4-chlorophenyl)cyclopropyl]-7-oxo-4H-pyrazolo[1,5-a]pyrimidine-3-carbonitrile]
EC50 [1]: 87 ± 104 µM | Hill slope, binding to AAA3 E/Q mutant (MST) ([1]; mean ± 95% CI, n=4): 0.8 ± 0.3 | FNorm, GFP-Sc-Dyn (MST) ([2]; 12.5 μM compound, AMPPNP 100 μM): 0.8 ± 2 | FNorm, GFP-Sc-Dyn (MST) ([2]; 12.5 μM compound, AMPPNP 1 mM): 1.9 ± 1.2 | ΔFNorm, GFP-Sc-Dyn (MST) ([2]; 12.5 μM compound): 3.0 ± 5.0 | FNorm, GFP-Sc-Dyn (MST) ([2]; 25 μM compound, AMPPNP 100 μM): 2.4 ± 2.3 | FNorm, GFP-Sc-Dyn (MST) ([2]; 25 μM compound, AMPPNP 1 mM): 0.1 ± 1 | ΔFNorm, GFP-Sc-Dyn (MST) ([2]; 25 μM compound): 6.7 ± 5.2 | ΔFNorm lower than that of the WT control ([2]; 50 μM compound 20, AMPPNP 1 mM): ~ 93% | FNorm, GFP-Sc-Dyn (MST) ([2]; 50 μM compound, AMPPNP 100 μM): 9.3 ± 2.3 | FNorm, GFP-Sc-Dyn (MST) ([2]; 50 μM compound, AMPPNP 1 mM): 1.2 ± 2 | ΔFNorm, GFP-Sc-Dyn (MST) ([2]; 50 μM compound): 16 ± 2.8 | EC50 ([2]; EC50, binding to GFP-Sc-Dyn (MST), mean ± 95% CI, n=9, Figures 5D-E): 70 ± 31 µM | EC50 ([2]; EC50, binding to WT GFP-Sc-Dyn (MST), mean ± 95% CI, n=4, Figure 5N, compared with V2391S/M2732S mutant): 36 ± 7.8 µM | Hill slope, binding to GFP-Sc-Dyn (MST) ([2]; mean ± 95% CI, n=9): 1.7 ± 0.6 | EC50 [3]: 22 ± 5.3 µM
